Where “and” joins values, the source holds several entries; their conditions need not be identical. Equal values may be shown once. Where a name gives a salt, the structure may show the parent alone.
How the values were obtained:
male ddy mice = experiment: Effect on KCN-induced mortality in mice; details: mouse, in vivo; hydrochloride
[1] = tested on: pyramidal cells in the CA1 region of the gerbil hippocampus; experiment: Effect on ischemia-induced neuronal damage in the gerbil hippocampus; assay type: in vivo; details: i.p., one hour before 5-min ischemia, normal pyramidal cells in 0.105 x 1.175 mm² of CA1, one week later
Excerpt: Effect on ischemia-induced neuronal damage in the gerbil hippo- campus
Kirino reported that a brief cerebral ischemia caused the destruction of the pyramidal cells in the CA1 region of the gerbil hippocampus [Brain Res. 239: 57-69 (1982)]. Effect of the compound(B) on this ischemia-induced neuronal damage was examined.
The compounds were intraperitoneally administered to each animal and one hour later 5-min ischemia was produced by clamping both common carotid arteries. One week after the 5-min ischemia gerbils were fixed by transcardiac perfusion of fixative which consisted of 4% formaldehyde in phosphate buffer (pH 7.4). The fixed brain was embedded in paraffin and semi-thin (3 µm) sections were cut at a level of the dorsal hippocampus. The sections were stained with feulgen for cell counting by an image-analyzing computer. Normal pyramidal cells in the area of 0.105 x 1.175 mm² were counted.

Molecule | Survival time (sec) mean ± SEM (male ddy mice) | neuronal density mean ± SEM ([1]; 3 mg/kg) | neuronal density mean ± SEM ([1]; 10 mg/kg) | neuronal density mean ± SEM ([1]; 30 mg/kg) | neuronal density mean ± SEM ([1]; 1 mg/kg)
(R)-(-)-2-[4-(p-Fluorobenzoyl)-1-piperidylj-1-naphthylethanol hydrochloride [ℓ-isomer of compound (B)] | 40.2 ± 1.8 s and 43.0 ± 1.8 s and 44.8 ± 1.9 s | 1.9 ± 0.5 | 17.2 ± 5.2 | 12.0 ± 3.4 | 
O=C(c1ccc(F)cc1)C1CCN(C[C@@H](O)c2ccc3ccccc3c2)CC1 [d-isomer of compound (B), hydrochloride] | 52.4 ± 2.4 s and 50.1 ± 1.6 s and 62.5 ± 4.4 s | 16.5 ± 4.0 | 34.6 ± 1.1 |  | 9.3 ± 4.6
